Data from the supplement of paper PMC10307832.

Columns and labels:
Experiment in all cases: relative viability (nuclei count vs DMSO), 5 days (fraction); higher = more cells survive
[1] = test system: HCC-15
Method in brief: (§1)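 Five library-drug doses in √10 steps were combined with a fixed anchor-drug dose, or a single drug was given alone, by pin tool to lung cancer cell lines in 1536-well plates the day after seeding. Nuclei were stained and counted after 5 days. Relative viability is the nuclei count in treated wells over that in vehicle wells, taken as the median of duplicate plates.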

[2] = test system: NCI-H2405
Method in brief: as §1

[3] = test system: LC-2-ad
Method in brief: as §1

[4] = test system: EPLC-272H
Method in brief: as §1

[5] = test system: NCI-H1944
Method in brief: as §1

[6] = test system: EMC-BAC-2
Method in brief: as §1

[7] = test system: ChaGo-K-1
Method in brief: as §1

[8] = test system: NCI-H23
Method in brief: as §1

[9] = test system: LK-2
Method in brief: as §1

[10] = test system: SW 1573
Method in brief: as §1

[11] = test system: NCI-H596
Method in brief: as §1

[12] = test system: NCI-H1792
Method in brief: as §1

[13] = test system: NCI-H1793
Method in brief: as §1

[14] = test system: RERF-LC-KJ
Method in brief: as §1

[15] = test system: NCI-H3122
Method in brief: as §1

[16] = test system: HCC-827
Method in brief: as §1

[17] = test system: NCI-H2170
Method in brief: as §1

[18] = test system: EKVX
Method in brief: as §1

[19] = test system: H3255
Method in brief: as §1

[20] = test system: HARA
Method in brief: as §1

Oc1nc(-c2ccc(C(F)(F)F)cc2)nc2c1CSCC2 [XAV939] + CC1(C)CCC(c2ccc(Cl)cc2)=C(CN2CCN(c3ccc(C(=O)NS(=O)(=O)c4ccc(N[C@H](CCN5CCOCC5)CSc5ccccc5)c(S(=O)(=O)C(F)(F)F)c4)cc3)CC2)C1 [Navitoclax] (partner 0.5 µM)
relative viability ([1]; first compound 0.08 µM): 0.719 | relative viability ([1]; first compound 0.253 µM): 0.612 | relative viability ([1]; first compound 0.8 µM): 0.678 | relative viability ([1]; first compound 2.53 µM): 0.684 | relative viability ([2]; first compound 0.08 µM): 0.945 | relative viability ([2]; first compound 0.253 µM): 0.762 | relative viability ([2]; first compound 0.8 µM): 0.886 | relative viability ([2]; first compound 2.53 µM): 0.555 | relative viability ([3]; first compound 0.08 µM): 0.389 | relative viability ([3]; first compound 0.253 µM): 0.429 | relative viability ([3]; first compound 0.8 µM): 0.6 | relative viability ([3]; first compound 2.53 µM): 0.428 | relative viability ([4]; first compound 0.08 µM): 1.18 | relative viability ([4]; first compound 0.253 µM): 1.08 | relative viability ([4]; first compound 0.8 µM): 1.19 | relative viability ([4]; first compound 2.53 µM): 1.11 | relative viability ([5]; first compound 0.08 µM): 1.07 | relative viability ([5]; first compound 0.253 µM): 0.986 | relative viability ([5]; first compound 0.8 µM): 1.01 | relative viability ([5]; first compound 2.53 µM): 1.1 | relative viability ([6]; first compound 0.08 µM): 1.28 | relative viability ([6]; first compound 0.253 µM): 1.04 | relative viability ([6]; first compound 0.8 µM): 1.1 | relative viability ([6]; first compound 2.53 µM): 0.793 | relative viability ([7]; first compound 0.08 µM): 0.898 | relative viability ([7]; first compound 0.253 µM): 0.914 | relative viability ([7]; first compound 0.8 µM): 0.998 | relative viability ([7]; first compound 2.53 µM): 1.04 | relative viability ([8]; first compound 0.08 µM): 0.859 | relative viability ([8]; first compound 0.253 µM): 0.776 | relative viability ([8]; first compound 0.8 µM): 0.531 | relative viability ([8]; first compound 2.53 µM): 0.755 | relative viability ([9]; first compound 0.08 µM): 1.07 | relative viability ([9]; first compound 0.253 µM): 0.757 | relative viability ([9]; first compound 0.8 µM): 0.928 | relative viability ([9]; first compound 2.53 µM): 0.631 | relative viability ([10]; first compound 0.08 µM): 1.16 | relative viability ([10]; first compound 0.253 µM): 0.957 | relative viability ([10]; first compound 0.8 µM): 0.83 | relative viability ([10]; first compound 2.53 µM): 0.792 | relative viability ([11]; first compound 0.08 µM): 0.887 | relative viability ([11]; first compound 0.253 µM): 1.09 | relative viability ([11]; first compound 0.8 µM): 0.901 | relative viability ([11]; first compound 2.53 µM): 0.756 | relative viability ([12]; first compound 0.08 µM): 0.595 | relative viability ([12]; first compound 0.253 µM): 0.589 | relative viability ([12]; first compound 0.8 µM): 0.601 | relative viability ([12]; first compound 2.53 µM): 0.572 | relative viability ([13]; first compound 0.08 µM): 0.593 | relative viability ([13]; first compound 0.253 µM): 0.442 | relative viability ([13]; first compound 0.8 µM): 0.369 | relative viability ([13]; first compound 2.53 µM): 0.452 | relative viability ([14]; first compound 0.08 µM): 0.905 | relative viability ([14]; first compound 0.253 µM): 0.999 | relative viability ([14]; first compound 0.8 µM): 0.804 | relative viability ([14]; first compound 2.53 µM): 0.452 | relative viability ([15]; first compound 0.08 µM): 1.03 | relative viability ([15]; first compound 0.253 µM): 1.04 | relative viability ([15]; first compound 0.8 µM): 1.04 | relative viability ([15]; first compound 2.53 µM): 0.886 | relative viability ([16]; first compound 0.08 µM): 1.02 | relative viability ([16]; first compound 0.253 µM): 1.02 | relative viability ([16]; first compound 0.8 µM): 0.975 | relative viability ([16]; first compound 2.53 µM): 1.04 | relative viability ([17]; first compound 0.08 µM): 0.427 | relative viability ([17]; first compound 0.253 µM): 0.441 | relative viability ([17]; first compound 0.8 µM): 0.501 | relative viability ([17]; first compound 2.53 µM): 0.422 | relative viability ([18]; first compound 0.08 µM): 1.02 | relative viability ([18]; first compound 0.253 µM): 0.814 | relative viability ([18]; first compound 0.8 µM): 0.57 | relative viability ([18]; first compound 2.53 µM): 0.557 | relative viability ([19]; first compound 0.08 µM): 0.511 | relative viability ([19]; first compound 0.253 µM): 0.445 | relative viability ([19]; first compound 0.8 µM): 0.403 | relative viability ([19]; first compound 2.53 µM): 0.366 | relative viability ([20]; first compound 0.08 µM): 1.15 | relative viability ([20]; first compound 0.253 µM): 0.609 | relative viability ([20]; first compound 0.8 µM): 1.17 | relative viability ([20]; first compound 2.53 µM): 1.17

C=C1C(=O)O[C@@H](CCCCCCCC)[C@@H]1C(=O)O [C-75] + CC1(C)CCC(c2ccc(Cl)cc2)=C(CN2CCN(c3ccc(C(=O)NS(=O)(=O)c4ccc(N[C@H](CCN5CCOCC5)CSc5ccccc5)c(S(=O)(=O)C(F)(F)F)c4)cc3)CC2)C1 [Navitoclax] (partner 0.5 µM)
relative viability ([1]; first compound 0.08 µM): 0.692 | relative viability ([1]; first compound 0.253 µM): 0.725 | relative viability ([1]; first compound 0.8 µM): 0.686 | relative viability ([1]; first compound 2.53 µM): 0.59 | relative viability ([1]; first compound 8 µM): 0.733 | relative viability ([2]; first compound 0.08 µM): 0.93 | relative viability ([2]; first compound 0.253 µM): 0.633 | relative viability ([2]; first compound 0.8 µM): 0.863 | relative viability ([2]; first compound 2.53 µM): 0.83 | relative viability ([2]; first compound 8 µM): 0.802 | relative viability ([3]; first compound 0.08 µM): 0.53 | relative viability ([3]; first compound 0.253 µM): 0.56 | relative viability ([3]; first compound 0.8 µM): 0.479 | relative viability ([3]; first compound 8 µM): 0.474 | relative viability ([4]; first compound 0.08 µM): 1.22 | relative viability ([4]; first compound 0.253 µM): 1.03 | relative viability ([4]; first compound 0.8 µM): 1.21 | relative viability ([4]; first compound 2.53 µM): 0.856 | relative viability ([4]; first compound 8 µM): 0.961 | relative viability ([5]; first compound 0.08 µM): 1.03 | relative viability ([5]; first compound 0.253 µM): 0.896 | relative viability ([5]; first compound 0.8 µM): 1.01 | relative viability ([5]; first compound 8 µM): 0.998 | relative viability ([6]; first compound 0.08 µM): 1.13 | relative viability ([6]; first compound 0.253 µM): 1.18 | relative viability ([6]; first compound 0.8 µM): 1.15 | relative viability ([6]; first compound 2.53 µM): 1.07 | relative viability ([6]; first compound 8 µM): 1.18 | relative viability ([7]; first compound 0.08 µM): 0.971 | relative viability ([7]; first compound 0.253 µM): 0.953 | relative viability ([7]; first compound 0.8 µM): 0.833 | relative viability ([7]; first compound 2.53 µM): 0.747 | relative viability ([7]; first compound 8 µM): 0.956 | relative viability ([8]; first compound 0.08 µM): 0.801 | relative viability ([8]; first compound 0.253 µM): 1.01 | relative viability ([8]; first compound 0.8 µM): 0.666 | relative viability ([8]; first compound 2.53 µM): 0.672 | relative viability ([8]; first compound 8 µM): 0.717 | relative viability ([9]; first compound 0.08 µM): 0.819 | relative viability ([9]; first compound 0.253 µM): 0.883 | relative viability ([9]; first compound 0.8 µM): 1.02 | relative viability ([9]; first compound 2.53 µM): 0.769 | relative viability ([9]; first compound 8 µM): 0.648 | relative viability ([10]; first compound 0.08 µM): 1.01 | relative viability ([10]; first compound 0.253 µM): 0.969 | relative viability ([10]; first compound 0.8 µM): 1.21 | relative viability ([10]; first compound 2.53 µM): 1.06 | relative viability ([10]; first compound 8 µM): 0.875 | relative viability ([11]; first compound 0.08 µM): 0.961 | relative viability ([11]; first compound 0.253 µM): 1.16 | relative viability ([11]; first compound 0.8 µM): 0.901 | relative viability ([11]; first compound 2.53 µM): 0.771 | relative viability ([11]; first compound 8 µM): 0.897 | relative viability ([12]; first compound 0.08 µM): 0.595 | relative viability ([12]; first compound 0.253 µM): 0.575 | relative viability ([12]; first compound 0.8 µM): 0.46 | relative viability ([12]; first compound 2.53 µM): 0.303 | relative viability ([12]; first compound 8 µM): 0.59 | relative viability ([13]; first compound 0.08 µM): 0.494 | relative viability ([13]; first compound 0.253 µM): 0.564 | relative viability ([13]; first compound 0.8 µM): 0.313 | relative viability ([13]; first compound 2.53 µM): 0.308 | relative viability ([13]; first compound 8 µM): 0.29 | relative viability ([14]; first compound 0.08 µM): 0.91 | relative viability ([14]; first compound 0.253 µM): 1.47 | relative viability ([14]; first compound 0.8 µM): 0.881 | relative viability ([14]; first compound 2.53 µM): 0.843 | relative viability ([14]; first compound 8 µM): 0.802 | relative viability ([15]; first compound 0.08 µM): 0.973 | relative viability ([15]; first compound 0.253 µM): 1.05 | relative viability ([15]; first compound 0.8 µM): 0.986 | relative viability ([15]; first compound 8 µM): 1.09 | relative viability ([16]; first compound 0.08 µM): 1.02 | relative viability ([16]; first compound 0.253 µM): 0.884 | relative viability ([16]; first compound 0.8 µM): 0.952 | relative viability ([16]; first compound 2.53 µM): 0.985 | relative viability ([16]; first compound 8 µM): 1.04 | relative viability ([17]; first compound 0.08 µM): 0.71 | relative viability ([17]; first compound 0.253 µM): 0.641 | relative viability ([17]; first compound 0.8 µM): 0.556 | relative viability ([17]; first compound 2.53 µM): 0.525 | relative viability ([17]; first compound 8 µM): 0.586 | relative viability ([18]; first compound 0.08 µM): 0.944 | relative viability ([18]; first compound 0.253 µM): 0.893 | relative viability ([18]; first compound 0.8 µM): 0.831 | relative viability ([18]; first compound 2.53 µM): 0.864 | relative viability ([18]; first compound 8 µM): 1.03 | relative viability ([19]; first compound 0.08 µM): 0.565 | relative viability ([19]; first compound 0.253 µM): 0.5 | relative viability ([19]; first compound 0.8 µM): 0.513 | relative viability ([19]; first compound 2.53 µM): 0.466 | relative viability ([19]; first compound 8 µM): 0.577 | relative viability ([20]; first compound 0.08 µM): 1.07 | relative viability ([20]; first compound 0.253 µM): 1.26 | relative viability ([20]; first compound 0.8 µM): 1.12 | relative viability ([20]; first compound 8 µM): 1.14
